In patent US20250059171A1 (Hoffmann-La Roche Inc., priority 2021, published 2025):

Columns and labels:
MERS-CoV 3CLpro = MERS-CoV 3CLpro (Middle East respiratory syndrome-related coronavirus, UniProt K9N7C7); assay: biochemical
SARS-CoV 3CLpro = SARS-CoV 3CLpro (Severe acute respiratory syndrome coronavirus, UniProt P0C6X7); assay: biochemical
SARS-CoV-2 3CLpro = SARS-CoV-2 3CLpro (Severe acute respiratory syndrome coronavirus 2, UniProt P0DTD1); assay: biochemical
HCoV-229E 3CLpro = HCoV-229E 3CLpro (Human coronavirus 229E, UniProt P0C6X1); assay: HCoV-229E 3CLpro inhibition assay (FRET); assay type: biochemical
Chain of HCoV-229E 3CLpro (P0C6X1 2966-3267): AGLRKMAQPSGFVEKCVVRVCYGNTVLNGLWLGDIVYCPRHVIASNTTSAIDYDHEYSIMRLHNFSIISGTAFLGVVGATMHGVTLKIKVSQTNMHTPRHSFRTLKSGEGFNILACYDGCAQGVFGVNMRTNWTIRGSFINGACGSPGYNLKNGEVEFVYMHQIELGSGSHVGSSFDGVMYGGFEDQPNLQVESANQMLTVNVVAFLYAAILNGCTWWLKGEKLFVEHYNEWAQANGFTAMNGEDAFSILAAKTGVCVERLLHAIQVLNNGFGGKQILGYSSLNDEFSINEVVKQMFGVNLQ

Chain of MERS-CoV 3CLpro (K9N7C7 3248-3553): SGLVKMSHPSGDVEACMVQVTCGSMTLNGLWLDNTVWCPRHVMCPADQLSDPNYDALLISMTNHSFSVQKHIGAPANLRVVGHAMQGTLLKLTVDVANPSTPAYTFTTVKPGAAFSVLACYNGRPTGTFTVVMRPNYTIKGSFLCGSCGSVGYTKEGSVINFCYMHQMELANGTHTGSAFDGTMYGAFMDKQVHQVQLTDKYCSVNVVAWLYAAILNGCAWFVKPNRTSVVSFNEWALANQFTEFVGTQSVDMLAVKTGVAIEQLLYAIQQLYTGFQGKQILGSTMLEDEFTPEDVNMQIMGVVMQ

Which results are given for `CC(C)(C)[C@H](NC(=O)C1CC1)C(=O)N1C[C@@H]2CCC[C@@H]2[C@H]1C(=O)NN(C[C@@H]1CCNC1=O)C(=O)[C@H](F)Cl` [Example 31, N-[(1S)-1-[(3S,3aS,6aR)-3-[[[(2R)-2-chloro-2-fluoro-acetyl]-[[(3S)-2-oxopyrrolidin-3-yl]methyl]amino]carbamoyl]-3,3a,4,5,6,6a-hexahydro-1H-cyclopenta[c]pyrrole-2-carbonyl]-2,2-dimethyl-propyl]cyclopropanecarboxamide]?
IC50 (MERS-CoV 3CLpro): 76 nM; IC50 (SARS-CoV 3CLpro): 12 nM; IC50 (SARS-CoV-2 3CLpro): 8 nM; IC50 (HCoV-229E 3CLpro): 28 nM

How did the IC50 (MERS-CoV 3CLpro) turn out when `CCC(=O)N[C@H](C(=O)N1C[C@@H]2CCC[C@@H]2[C@H]1C(=O)NN(C[C@@H]1CCNC1=O)C(=O)[C@H](F)Cl)C(C)(C)C` [Example 32, N-[(1S)-1-[(3S,3aS,6aR)-3-[[[(2R)-2-chloro-2-fluoro-acetyl]-[[(3S)-2-oxopyrrolidin-3-yl]methyl]amino]carbamoyl]-3,3a,4,5,6,6a-hexahydro-1H-cyclopenta[c]pyrrole-2-carbonyl]-2,2-dimethyl-propyl]propanamide] was run?
The IC50 was 80 nM.

What about the IC50 (SARS-CoV 3CLpro) of the same molecule?
The IC50 was 10 nM.

What about the IC50 (SARS-CoV-2 3CLpro) of the same molecule?
The IC50 was 7 nM.

What about the IC50 (HCoV-229E 3CLpro) of the same molecule?
Its IC50 is 23 nM.

With `CC(C)C(=O)N[C@H](C(=O)N1C[C@@H]2CCC[C@@H]2[C@H]1C(=O)NN(C[C@@H]1CCNC1=O)C(=O)[C@H](F)Cl)C(C)(C)C` [Example 33, N-[(1S)-1-[(3S,3aS,6aR)-3-[[[(2R)-2-chloro-2-fluoro-acetyl]-[[(3S)-2-oxopyrrolidin-3-yl]methyl]amino]carbamoyl]-3,3a,4,5,6,6a-hexahydro-1H-cyclopenta[c]pyrrole-2-carbonyl]-2,2-dimethyl-propyl]-2-methyl-propanamide] as the molecule, how does the IC50 (MERS-CoV 3CLpro) read?
Its IC50 is 79 nM.

And the IC50 (SARS-CoV 3CLpro)?
Its IC50 is 8 nM.

And the IC50 (SARS-CoV-2 3CLpro)?
Its IC50 is 7 nM.

And the IC50 (HCoV-229E 3CLpro)?
Its IC50 is 27 nM.

Which results are given for `CC(C)(F)C(=O)N[C@H](C(=O)N1C[C@@H]2CCC[C@@H]2[C@H]1C(=O)NN(C[C@@H]1CCNC1=O)C(=O)[C@H](F)Cl)C(C)(C)C` [Example 35, N-[(1S)-1-[(3S,3aS,6aR)-3-[[[(2R)-2-chloro-2-fluoro-acetyl]-[[(3S)-2-oxopyrrolidin-3-yl]methyl]amino]carbamoyl]-3,3a,4,5,6,6a-hexahydro-1H-cyclopenta[c]pyrrole-2-carbonyl]-2,2-dimethyl-propyl]-2-fluoro-2-methyl-propanamide]?
IC50 (MERS-CoV 3CLpro): 60 nM; IC50 (SARS-CoV 3CLpro): 8 nM; IC50 (SARS-CoV-2 3CLpro): 8 nM; IC50 (HCoV-229E 3CLpro): 23 nM

Which IC50 (MERS-CoV 3CLpro) does the source give for `CC[C@H](C)[C@H](NC(=O)C1CC1)C(=O)N1C[C@@H]2CCC[C@@H]2[C@H]1C(=O)NN(C[C@@H]1CCNC1=O)C(=O)[C@H](F)Cl` [Example 37, N-[(1S,2S)-1-[(3S,3aS,6aR)-3-[[[(2R)-2-chloro-2-fluoro-acetyl]-[[(3S)-2-oxopyrrolidin-3-yl]methyl]amino]carbamoyl]-3,3a,4,5,6,6a-hexahydro-1H-cyclopenta[c]pyrrole-2-carbonyl]-2-methyl-butyl]cyclopropanecarboxamide] here?
The IC50 was 76 nM.

What about the IC50 (SARS-CoV 3CLpro) of the same molecule?
The IC50 was 11 nM.

What about the IC50 (SARS-CoV-2 3CLpro) of the same molecule?
Its IC50 is 9 nM.

What about the IC50 (HCoV-229E 3CLpro) of the same molecule?
Its IC50 is 29 nM.

What does the source list for `CCC(=O)N[C@H](C(=O)N1C[C@@H]2CCC[C@@H]2[C@H]1C(=O)NN(C[C@@H]1CCNC1=O)C(=O)[C@H](F)Cl)[C@@H](C)CC` [Example 38, N-[(1S,2S)-1-[(3S,3aS,6aR)-3-[[[(2R)-2-chloro-2-fluoro-acetyl]-[[(3S)-2-oxopyrrolidin-3-yl]methyl]amino]carbamoyl]-3,3a,4,5,6,6a-hexahydro-1H-cyclopenta[c]pyrrole-2-carbonyl]-2-methyl-butyl]propanamide]?
IC50 (MERS-CoV 3CLpro): 72 nM; IC50 (SARS-CoV 3CLpro): 10 nM; IC50 (SARS-CoV-2 3CLpro): 8 nM; IC50 (HCoV-229E 3CLpro): 29 nM

With `CC[C@H](C)[C@H](NC(=O)C(F)F)C(=O)N1C[C@@H]2CCC[C@@H]2[C@H]1C(=O)NN(C[C@@H]1CCNC1=O)C(=O)[C@H](F)Cl` [Example 39, N-[(1S,2S)-1-[(3S,3aS,6aR)-3-[[[(2R)-2-chloro-2-fluoro-acetyl]-[[(3S)-2-oxopyrrolidin-3-yl]methyl]amino]carbamoyl]-3,3a,4,5,6,6a-hexahydro-1H-cyclopenta[c]pyrrole-2-carbonyl]-2-methyl-butyl]-2,2-difluoro-acetamide] as the molecule, how does the IC50 (MERS-CoV 3CLpro) read?
Its IC50 is 71 nM.

What about the IC50 (SARS-CoV 3CLpro) of the same molecule?
The IC50 was 11 nM.

And the IC50 (SARS-CoV-2 3CLpro)?
The IC50 was 9 nM.

And the IC50 (HCoV-229E 3CLpro)?
Its IC50 is 29 nM.

How did the IC50 (MERS-CoV 3CLpro) turn out when `CC[C@H](C)[C@H](NC(=O)C(C)(F)F)C(=O)N1C[C@@H]2CCC[C@@H]2[C@H]1C(=O)NN(C[C@@H]1CCNC1=O)C(=O)[C@H](F)Cl` [Example 40, N-[(1S,2S)-1-[(3S,3aS,6aR)-3-[[[(2R)-2-chloro-2-fluoro-acetyl]-[[(3S)-2-oxopyrrolidin-3-yl]methyl]amino]carbamoyl]-3,3a,4,5,6,6a-hexahydro-1H-cyclopenta[c]pyrrole-2-carbonyl]-2-methyl-butyl]-2,2-difluoro-propanamide] was run?
Its IC50 is 50 nM.

And the IC50 (SARS-CoV 3CLpro)?
The IC50 was 13 nM.

What about the IC50 (SARS-CoV-2 3CLpro) of the same molecule?
Its IC50 is 21 nM.

What about the IC50 (HCoV-229E 3CLpro) of the same molecule?
The IC50 was 27 nM.

For `CC[C@H](C)[C@H](NC(=O)C(C)(C)F)C(=O)N1C[C@@H]2CCC[C@@H]2[C@H]1C(=O)NN(C[C@@H]1CCNC1=O)C(=O)[C@H](F)Cl` [Example 42, N-[(1S,2S)-1-[(3S,3aS,6aR)-3-[[[(2R)-2-chloro-2-fluoro-acetyl]-[[(3S)-2-oxopyrrolidin-3-yl]methyl]amino]carbamoyl]-3,3a,4,5,6,6a-hexahydro-1H-cyclopenta[c]pyrrole-2-carbonyl]-2-methyl-butyl]-2-fluoro-2-methyl-propanamide], which IC50 (MERS-CoV 3CLpro) is on record?
Its IC50 is 82 nM.

And the IC50 (SARS-CoV 3CLpro)?
Its IC50 is 9 nM.

What about the IC50 (SARS-CoV-2 3CLpro) of the same molecule?
Its IC50 is 7 nM.

And the IC50 (HCoV-229E 3CLpro)?
Its IC50 is 24 nM.

What does the source list for `CC[C@H](C)[C@H](NC(=O)C(C)(C)C)C(=O)N1C[C@@H]2CCC[C@@H]2[C@H]1C(=O)NN(C[C@@H]1CCNC1=O)C(=O)[C@H](F)Cl` [Example 44, N-[(1S,2S)-1-[(3S,3aS,6aR)-3-[[[(2R)-2-chloro-2-fluoro-acetyl]-[[(3S)-2-oxopyrrolidin-3-yl]methyl]amino]carbamoyl]-3,3a,4,5,6,6a-hexahydro-1H-cyclopenta[c]pyrrole-2-carbonyl]-2-methyl-butyl]-2,2-dimethyl-propanamide]?
IC50 (MERS-CoV 3CLpro): 55 nM; IC50 (SARS-CoV 3CLpro): 11 nM; IC50 (SARS-CoV-2 3CLpro): 8 nM; IC50 (HCoV-229E 3CLpro): 23 nM

How did the IC50 (MERS-CoV 3CLpro) turn out when `CC[C@H](C)[C@H](NC(=O)CC(F)(F)F)C(=O)N1C[C@@H]2CCC[C@@H]2[C@H]1C(=O)NN(C[C@@H]1CCNC1=O)C(=O)[C@H](F)Cl` [Example 45, N-[(1S,2S)-1-[(3S,3aS,6aR)-3-[[[(2R)-2-chloro-2-fluoro-acetyl]-[[(3S)-2-oxopyrrolidin-3-yl]methyl]amino]carbamoyl]-3,3a,4,5,6,6a-hexahydro-1H-cyclopenta[c]pyrrole-2-carbonyl]-2-methyl-butyl]-3,3,3-trifluoro-propanamide] was run?
The IC50 was 104 nM.

And the IC50 (SARS-CoV 3CLpro)?
Its IC50 is 10 nM.

What about the IC50 (SARS-CoV-2 3CLpro) of the same molecule?
The IC50 was 19 nM.

And the IC50 (HCoV-229E 3CLpro)?
The IC50 was 35 nM.

For `CCCC(=O)N[C@H](C(=O)N1C[C@@H]2CCC[C@@H]2[C@H]1C(=O)NN(C[C@@H]1CCNC1=O)C(=O)[C@H](F)Cl)[C@@H](C)CC` [Example 46, N-[(1S,2S)-1-[(3S,3aS,6aR)-3-[[[(2R)-2-chloro-2-fluoro-acetyl]-[[(3S)-2-oxopyrrolidin-3-yl]methyl]amino]carbamoyl]-3,3a,4,5,6,6a-hexahydro-1H-cyclopenta[c]pyrrole-2-carbonyl]-2-methyl-butyl]butanamide], which IC50 (MERS-CoV 3CLpro) is on record?
The IC50 was 152 nM.

What about the IC50 (SARS-CoV 3CLpro) of the same molecule?
The IC50 was 29 nM.

What about the IC50 (SARS-CoV-2 3CLpro) of the same molecule?
The IC50 was 8 nM.

And the IC50 (HCoV-229E 3CLpro)?
Its IC50 is 49 nM.
